Experimental data published in patent publication US6689381B2, “Liposomal benzoquinazoline thymidylate synthase inhibitor formulations” (OSI Pharmaceuticals, Inc., priority 2000, dated 2004).
“And” between values parts separate entries of the source, which are not always exact repeats. Equal entries are not always repeated. Where two headings read alike, the source gives them in different places.

How the values were obtained:
[1] = Example 2: single dose plasma pharmacokinetics of free GW1843 and four liposomal formulations, 1 mg/kg iv bolus; type: in vivo, Sprague Dawley rats; conditions: single 1 mg/kg iv bolus; for GW1843 Plasma Concentration: listed as Free GW1843, 1 mg/kg
Description: The plasma pharmacokinetics of free GW1843 and 4 different liposome formulations (see Table 1A; GC-1007-27, GC-1020-36, NA-1022-63A, and NA-1022-59A) of GW1843 in rats following a single intravenous bolus administration are compared. The liposome formulations differed by the pH utilized to load the liposome. NX1843 lot nos. GC-1007-27, GC-1020-36, NA-1022-63A, and NA-1022-59A were loaded at pH 7.0, 7.4, 7.3 and 7.5, respectively.
A total of fifteen Sprague Dawley rats were used in the study. Each rat weighed approximately 250 grams. Three animals were assigned to each group (five groups in total). Individual animals were weighed and dosed at 1 mg/kg body weight by intravenous bolus administration into the tail vein while under isoflurene anesthesia. EDTA blood samples were taken at the time points shown in Table 2 while under isoflurene anesthesia and immediately processed into plasma. Plasma was stored at −20° C. until analysis.
Plasma samples were prepared and analyzed for GW1843 by the use of a non-validated HPLC assay. Following methanol precipitation of plasma protein, the soluble GW1843 was separated by C-18 reverse phase column chromatography. Separation was achieved by an isocratic method. Running buffer consisted of 80% acetonitrile and 20% 100 mM ammonium acetate pH=5.3. Area under the peak versus concentration of GW1843 was used to construct the standard curve.
Pharmacokinetic parameters were determined by non-compartmental analysis (WinNonlin version 1.5). Pharmacokinetic parameters were determined for each experimental group using the average concentration versus time values for each group. The following parameters were calculated: Maximum plasma concentration (Cmax); area under the plasma concentration versus time curve extrapolating to infinite time (AUCinf) or to last time point (AUClast); elimation half-life (Elim.T½); mean residence time (MRT) plasma clearance (Cl) and volume of distribution at steady state (Vss).

[2] = test system: human colon tumor xenograft model (HCT-8, thymidine kinase (TK)-/-); assay: HCT-8 xenograft, second study: liposomal GW1843U89 versus free drug (Table 26); type: in vivo, Female Nu/Nu mice
Description: Female Nu/Nu mice (18-24 g, 10-14 weeks old) were obtained from Harlan Sprague Dawley, and housed in microisolator filtration racks and maintained with filtered acidified water and sterile lab chow ad libitum. The human colon tumor xenograft model (HCT-8, thymidine kinase (TK)−/−) was obtained from Dr. Youcef M. Rustum (Roswell Park, Buffalo, N.Y.), and established in-house as a useful model for evaluation of thymidylate synthase inhibitors. Animals were allowed to acclimate to their new environment for 1 week prior to tumor cell implantation. Tumors were established by injecting harvested tumor cells in a single subcutaneous site on the flank of the mice in the axillary region. The tumors were grown until approximately 200+/−50 mm^3 in size. The animals were then sorted according to body weight, grouped four animals/cage, and tattooed on the tail for permanent identification. […] Tumor volumes were determined with vernier caliper measurements taken at right angles using the formula, (L×W^2/2) and body weights, were collected twice weekly. Data was plotted as % change in body weight vs. time in days, and % tumor volume increase vs. days.
(§1) T=(mean) time in days for treated group to reach cutoff size (2 grams)
(§2) C=(mean) time in days for control group to reach cutoff size (2 grams)
(§3) WC is the mean tumor weight of control group at time x
(§4) Wt is mean tumor weight of treated group at time x
% Regression=100 (Wo−Wi)/Wo; where Wo is the mean tumor weight for treated group at the initiation of treatment and Wi=the mean tumor weight for that group at time some time x after treatment. Many times the time x=24-48 hr after the final dose of therapy.
The log10 cell kill (gross)=[T−C value in days/(3.32)(Td)
Where T−C=time difference in days between Treated and Control tumors to reach a defined end point; and Td is the Tumor Volume Doubling time in days from the best-fit straight line from a log-linear growth plot of the control tumors exponential growth (100-800 mg range). […]

[3] = test system: human colon tumor xenograft model (HCT-8, thymidine kinase (TK)-/-); assay: HCT-8 xenograft, NX1843 dose schedule study and combinations with 5-FU, NX211 and GW1843 (Table 27); type: in vivo, nude mice
Protocol: Female Nu/Nu mice (18-24 g, 10-14 weeks old) were obtained from Harlan Sprague Dawley, and housed in microisolator filtration racks and maintained with filtered acidified water and sterile lab chow ad libitum. […] Animals were allowed to acclimate to their new environment for 1 week prior to tumor cell implantation. Tumors were established by injecting harvested tumor cells in a single subcutaneous site on the flank of the mice in the axillary region. The tumors were grown until approximately 200+/−50 mm^3 in size. The animals were then sorted according to body weight, grouped four animals/cage, and tattooed on the tail for permanent identification. Groups consisting of 8 tumor-bearing mice each were administered weekly doses of experimental agents by IV bolus injection through the tail vein. Tumor volumes were determined with vernier caliper measurements taken at right angles using the formula, (L×W^2/2) and body weights, were collected twice weekly. Data was plotted as % change in body weight vs. time in days, and % tumor volume increase vs. days.
as §1, §2, §3, §4
% Regression=100 (Wo−Wi)/Wo; where Wo is the mean tumor weight for treated group at the initiation of treatment and Wi=the mean tumor weight for that group at time some time x after treatment.
In addition to these dose groups the free drug was dosed at 100 mg/kg on days 1-5, and repeated for a second week.

[4] = Sprague Dawley, rat, plasma, rats ~250 g, noncompartmental, group average

## Cc1nc2ccc3ccc(CNc4ccc5c(c4)CN(C(CCC(=O)O)C(=O)O)C5=O)cc3c2c(=O)[nH]1 (stereo not shown) [GW1843]
[1]; 0.083 h, individual rats
  GW1843 Plasma Concentration: 0.76 µg/mL
[1]; 0.250 h, individual rats
  GW1843 Plasma Concentration: 0.20 µg/mL and 0.19 µg/mL
[1]; 0.500 h, individual rats
  GW1843 Plasma Concentration: 0.11 µg/mL and 0.10 µg/mL
[1]; 1.000 h, individual rats
  GW1843 Plasma Concentration: BLQ and 0.06 μg/mL
[1]; Sprague Dawley, rat, plasma, iv, 1 mg/kg, 0.083 h, individual rats
  concentration at 0.083 h: 520 ng/mL
[1]; Sprague Dawley, rat, plasma, iv, 1 mg/kg, 0.250 h, individual rats
  concentration at 0.25 h: 180 ng/mL
[1]; Sprague Dawley, rat, plasma, iv, 1 mg/kg, 0.500 h, individual rats
  concentration at 0.5 h: 100 ng/mL
[1]; Sprague Dawley, rat, plasma, iv, 1 mg/kg, 1.000 h, individual rats
  concentration at 1 h: 60 ng/mL
[1]; Sprague Dawley, rat, plasma, iv, 1 mg/kg, rats ~250 g, noncompartmental, group average, read-out: Cmax
  Cmax: 1280 ng/mL
[1]; Sprague Dawley, rat, plasma, iv, 1 mg/kg, rats ~250 g, noncompartmental, group average, read-out: t½ (elimination half-life) (converted)
  half-life: ~30 min
[1]; Sprague Dawley, rat, plasma, iv, 1 mg/kg, rats, text of Example 2, read-out: maximum achieved concentrations (Cmax) in the plasma
  Cmax: 1300 ng/mL
[1]; [4]
  AUC(0-inf): 263 ng·h/mL
  AUC(0-t): 219 ng·h/mL
  MRT inf: 30 min
[1]; Sprague Dawley, rat, plasma, rats ~250 g, noncompartmental, group average, read-out: Cl (converted)
  clearance: 63.4 mL/min/kg
[1]; Sprague Dawley, rat, plasma, rats ~250 g, noncompartmental, group average, read-out: Vss
  Vd: 1.89 L/kg
[1]; Sprague Dawley, rat, plasma, rats, text of Example 2, read-out: plasma clearance (converted)
  clearance: 63.4 mL/min
[2]; 25 mg/kg every day (total 350 mg/kg)
  log cell kill: 1.5
[2]; 50 mg/kg every day (total 700 mg/kg)
  log cell kill: 3.5
[2]; 25 and 50 mg/kg every day
  tumor regression: no tumor regression occurred
[3]; 100 mg/kg, QD1-5 × 2
  % TGI: 80%
  Cures: 0
  LCK: 2.4
[3]; 100 mg/kg, QD1-5 × 2, day 22
  % Regression day 22: 0%
[3]; iv, NX1843 25 mg/kg d1,8, 15 mg/kg QD(1,3,5)×2 or 7.5 mg/kg QD(1-5)×2, GW1843 100 mg/kg d1-5 ×2, 5FU 100 mg/kg d1,8, NX211 6 mg/kg d1,8, combinations at same doses
  log cell kill (LCK): 2.4
